Experiments:
Format in all cases: functional
[1] = Cytotoxicity against Homo sapiens (human) prostate cancer cells after 48 hr by SRB assay; settings: Cancer cell lines
[2] = Cytotoxicity against Homo sapiens (human) ovarian cancer cells after 48 hr by SRB assay; settings: Cancer cell lines
[3] = Cytotoxicity against Homo sapiens (human) melanoma cells after 48 hr by SRB assay; settings: Melanoma cell
[4] = Cytotoxicity against Homo sapiens (human) CNS cancer cells after 48 hr by SRB assay; settings: Cancer cell lines
[5] = Cytotoxicity against Homo sapiens (human) non-small cell lung cancer cells after 48 hr by SRB assay; settings: Cancer cell lines
[6] = Cytotoxicity against Homo sapiens (human) NCI-ADR-RES cells after 48 hr by SRB assay
[7] = test system: SF-295; test: Cytotoxicity against Homo sapiens (human) SF295 cells assessed as growth inhibition at 10 uM after 24 hr; settings: SF-295, 24 h, read-out: GI
[8] = test system: KM12; test: Cytotoxicity against Homo sapiens (human) KM12 cells assessed as growth inhibition at 10 uM after 24 hr; settings: KM12, 24 h, read-out: GI
[9] = test system: HCT-15; test: Cytotoxicity against Homo sapiens (human) HCT15 cells assessed as growth inhibition at 10 uM after 24 hr; settings: HCT-15, 24 h, read-out: GI
[10] = test system: HCT-116; test: Cytotoxicity against Homo sapiens (human) HCT116 cells assessed as growth inhibition at 10 uM after 24 hr; settings: HCT-116, 24 h, read-out: GI
[11] = test system: NCI-H460; test: Cytotoxicity against Homo sapiens (human) NCI-H460 cells assessed as growth inhibition at 10 uM after 24 hr; settings: NCI-H460, 24 h, read-out: GI
[12] = test system: NCI-H23; test: Cytotoxicity against Homo sapiens (human) NCI-H23 cells assessed as growth inhibition at 10 uM after 24 hr; settings: NCI-H23, 24 h, read-out: GI
[13] = test system: HOP-92; test: Cytotoxicity against Homo sapiens (human) HOP92 cells assessed as growth inhibition at 10 uM after 24 hr; settings: HOP-92, 24 h, read-out: GI
[14] = test system: SR; test: Cytotoxicity against Homo sapiens (human) SR cells assessed as growth inhibition at 10 uM after 24 hr; settings: read-out: GI
[15] = test system: K562; test: Cytotoxicity against Homo sapiens (human) K562 cells assessed as growth inhibition at 10 uM after 24 hr; settings: K562, 24 h, read-out: GI
[16] = test system: RXF 393; test: Cytotoxicity against Homo sapiens (human) RXF393 cells assessed as growth inhibition at 10 uM after 24 hr; settings: RXF 393, 24 h, read-out: GI
[17] = test system: A498; test: Cytotoxicity against Homo sapiens (human) A498 cells assessed as growth inhibition at 10 uM after 24 hr; settings: A498, 24 h, read-out: GI
[18] = test system: ACHN; test: Cytotoxicity against Homo sapiens (human) ACHN cells assessed as growth inhibition at 10 uM after 24 hr; settings: read-out: GI
[19] = test system: 786-0; test: Cytotoxicity against Homo sapiens (human) 786-0 cells assessed as growth inhibition at 10 uM after 24 hr; settings: 786-0, 24 h, read-out: GI
[20] = test system: SK-OV-3; test: Cytotoxicity against Homo sapiens (human) SKOV3 cells assessed as growth inhibition at 10 uM after 24 hr; settings: SK-OV-3, 24 h, read-out: GI
[21] = test system: OVCAR-5; test: Cytotoxicity against Homo sapiens (human) OVCAR5 cells assessed as growth inhibition at 10 uM after 24 hr; settings: OVCAR-5, 24 h, read-out: GI
[22] = test system: OVCAR-8; test: Cytotoxicity against Homo sapiens (human) OVCAR8 cells assessed as growth inhibition at 10 uM after 24 hr; settings: OVCAR-8, 24 h, read-out: GI
[23] = test system: IGROV-1; test: Cytotoxicity against Homo sapiens (human) IGROV1 cells assessed as growth inhibition at 10 uM after 24 hr; settings: IGROV-1, 24 h, read-out: GI
[24] = test system: UACC-62; test: Cytotoxicity against Homo sapiens (human) UACC62 cells assessed as growth inhibition at 10 uM after 24 hr; settings: UACC-62, 24 h, read-out: GI
[25] = test system: SK-MEL-5; test: Cytotoxicity against Homo sapiens (human) SK-MEL-5 cells assessed as growth inhibition at 10 uM after 24 hr; settings: SK-MEL-5, 24 h, read-out: GI
[26] = test system: SK-MEL-28; test: Cytotoxicity against Homo sapiens (human) SK-MEL-28 cells assessed as growth inhibition at 10 uM after 24 hr; settings: SK-MEL-28, 24 h, read-out: GI
[27] = test system: MDA-MB-435; test: Cytotoxicity against Homo sapiens (human) MDA-MB-435 cells assessed as growth inhibition at 10 uM after 24 hr; settings: MDA-MB-435, 24 h, read-out: GI
[28] = test system: M14; test: Cytotoxicity against Homo sapiens (human) M14 cells assessed as growth inhibition at 10 uM after 24 hr; settings: M14, 24 h, read-out: GI
[29] = test system: LOX IMVI; test: Cytotoxicity against Homo sapiens (human) LOXIMVI cells assessed as growth inhibition at 10 uM after 24 hr; settings: read-out: GI
[30] = test system: SNB-75; test: Cytotoxicity against Homo sapiens (human) SNB75 cells assessed as growth inhibition at 10 uM after 24 hr; settings: SNB-75, 24 h, read-out: GI
[31] = test system: PC-3; test: Cytotoxicity against Homo sapiens (human) PC3 cells assessed as growth inhibition at 10 uM after 24 hr; settings: PC-3, 24 h, read-out: GI
[32] = test system: DU-145; test: Cytotoxicity against Homo sapiens (human) DU145 cells assessed as growth inhibition at 10 uM after 24 hr; settings: DU-145, 24 h, read-out: GI
[33] = test system: UO-31; test: Cytotoxicity against Homo sapiens (human) UO31 cells assessed as growth inhibition at 10 uM after 24 hr; settings: UO-31, 24 h, read-out: GI
[34] = test system: TK-10; test: Cytotoxicity against Homo sapiens (human) TK10 cells assessed as growth inhibition at 10 uM after 24 hr; settings: TK-10, 24 h, read-out: GI
[35] = test system: SN12C; test: Cytotoxicity against Homo sapiens (human) SN12C cells assessed as growth inhibition at 10 uM after 24 hr; settings: read-out: GI
[36] = Cytotoxicity against Homo sapiens (human) leukemia cells after 48 hr by SRB assay; settings: Leukemia cell
[37] = test system: MDA-MB-435; test: Cytotoxicity against Homo sapiens (human) MDA-MB-435 cells after 48 hr by SRB assay; settings: MDA-MB-435, 48 h
[38] = read-out: LC50 (the source's name)

Work on Nc1cc(-c2ccc(Cl)cc2)nn1-c1nc(=O)c(/C=C/c2ccco2)n[nH]1 yielded a GI50 [1] of 4.3 µM, a TGI [1] of 40.1 µM and a CC50 [1, 38] of 50 µM. The GI50 [2] was 3.8 µM, the TGI [2] was 43.1 µM and the CC50 [2, 38] was 89.7 µM. The GI50 [3] was 6.7 µM, the TGI [3] was 59.3 µM and the CC50 [3, 38] was greater than 100 µM. For the same compound, the GI50 [4] was 4.99 µM, the TGI [4] was 44.5 µM and the CC50 [4, 38] was greater than 100 µM. The GI50 [5] was 4.47 µM, the TGI [5] was 41.1 µM and the CC50 [5, 38] was greater than 100 µM. It also gave a GI50 [6] of 1.23 µM, a TGI [6] of 8.11 µM and a CC50 [6, 38] of 96.4 µM. For the same compound, the inhibition of growth at 10 µM [7] was 90.1%, the inhibition of growth at 10 µM [8] was 44% and the inhibition of growth at 10 µM [9] was 61.9%. For the same compound, the inhibition of growth at 10 µM [10] was 59%, the inhibition of growth at 10 µM [11] was 79.6% and the inhibition of growth at 10 µM [12] was 41.2%. The inhibition of growth at 10 µM [13] was 39.7%, the inhibition of growth at 10 µM [14] was 61.9% and the inhibition of growth at 10 µM [15] was 58.3%. It also gave an inhibition of growth at 10 µM [16] of 32.2%, an inhibition of growth at 10 µM [17] of 66.2% and an inhibition of growth at 10 µM [18] of 70.6%. For the same compound, the inhibition of growth at 10 µM [19] was 53.1%, the inhibition of growth at 10 µM [20] was 39.3% and the inhibition of growth at 10 µM [21] was 39.1%. For the same compound, the inhibition of growth at 10 µM [22] was 75.2%, the inhibition of growth at 10 µM [23] was 65% and the inhibition of growth at 10 µM [24] was 47.5%. The inhibition of growth at 10 µM [25] was 54%, the inhibition of growth at 10 µM [26] was 33.6% and the inhibition of growth at 10 µM [27] was 37.2%. The inhibition of growth at 10 µM [28] was 42.6%, the inhibition of growth at 10 µM [29] was 50.1% and the inhibition of growth at 10 µM [30] was 32.6%. It also gave an inhibition of growth at 10 µM [31] of 47.4%, an inhibition of growth at 10 µM [32] of 36.7% and an inhibition of growth at 10 µM [33] of 96.1%. For the same compound, the inhibition of growth at 10 µM [34] was 48.8%, the inhibition of growth at 10 µM [35] was 31.8% and the GI50 [36] was 2.71 µM. It also gave a TGI [36] of 17.9 µM, a CC50 [36, 38] greater than 100 µM and a GI50 [37] of 5.22 µM. It also gave a TGI [37] greater than 100 µM and a CC50 [37, 38] greater than 100 µM.
